Consider 21 compounds from patent publication US9034921B2, “Diphenylmethane derivatives as SGLT2 inhibitors” (GREEN CROSS CORPORATION, priority 2011, dated 2015).

For this assay, the target named is human SGLT2 (Homo sapiens (Human), UniProt P31639). Put plainly: Inhibitory effects on human SGLT2 activities (14C-AMG uptake, sodium-dependent glucose transport assay). It is filed as cell-based. Conditions: CHO cells stably expressing hSGLT2, 37° C., 2 h, single determinations. An outline of the steps:
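CHO cells stably expressing hSGLT2 were preincubated 10 min at 37 °C in choline (Na+-free) buffer, then exposed 2 h at 37 °C to compound in Na+ uptake buffer with 8 μM 14C-AMG and 1 mM unlabeled AMG. Radioactivity was scintillation counted; IC50 came from nonlinear regression.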

One may read the IC50 as the concentration at which inhibition is half-maximal. Lower therefore signals higher potency.

Chain of human SGLT2 (P31639 whole entry): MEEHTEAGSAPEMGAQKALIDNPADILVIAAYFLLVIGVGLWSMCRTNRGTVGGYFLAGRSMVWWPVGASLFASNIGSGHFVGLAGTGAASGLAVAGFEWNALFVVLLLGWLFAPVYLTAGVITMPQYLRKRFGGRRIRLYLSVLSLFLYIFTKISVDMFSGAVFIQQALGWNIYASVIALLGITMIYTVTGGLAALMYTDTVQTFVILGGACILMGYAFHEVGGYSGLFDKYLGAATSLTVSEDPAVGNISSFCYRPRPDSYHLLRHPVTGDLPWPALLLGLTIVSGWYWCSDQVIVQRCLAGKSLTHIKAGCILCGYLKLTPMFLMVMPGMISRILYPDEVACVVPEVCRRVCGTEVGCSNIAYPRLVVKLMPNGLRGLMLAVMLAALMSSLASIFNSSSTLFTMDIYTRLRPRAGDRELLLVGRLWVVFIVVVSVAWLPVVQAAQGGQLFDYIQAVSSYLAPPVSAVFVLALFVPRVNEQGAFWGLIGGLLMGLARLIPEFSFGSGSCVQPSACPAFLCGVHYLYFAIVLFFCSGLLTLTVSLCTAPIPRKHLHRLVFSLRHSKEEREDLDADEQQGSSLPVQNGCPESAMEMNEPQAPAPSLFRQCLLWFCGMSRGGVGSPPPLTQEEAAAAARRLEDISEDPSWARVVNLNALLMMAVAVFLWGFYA

Compound `COc1ccc(Cc2cc([C@@H]3O[C@H](CO)[C@@H](O)[C@H](O)[C@H]3O)c3c(c2Cl)C(C)(C)CO3)cc1` [Example E218, (2S,3R,4R,5S,6R)-2-(4-Chloro-5-(4-methoxybenzyl)-3,3-dimethyl-2,3-dihydrobenzofuran-7-yl)-6-(hydroxymethyl)tetrahydro-2H-pyran-3,4,5-triol] gave an IC50 of 4.66 nM.

In turn, `COc1ccc(Cc2cc([C@@H]3O[C@H](CO)[C@@H](O)[C@H](O)[C@H]3O)c3c(c2Cl)CC(C)(C)O3)cc1` [Example E219, (2S,3R,4R,5S,6R)-2-(4-Chloro-5-(4-methoxybenzyl)-2,2-dimethyl-2,3-dihydrobenzofuran-7-yl)-6-(hydroxymethyl)tetrahydro-2H-pyran-3,4,5-triol] had an IC50 of 1.61 nM. This IC50 lies about 2.9-fold lower than the previous one.

The compound `CCOc1ccc(Cc2cc([C@@H]3O[C@H](CO)[C@@H](O)[C@H](O)[C@H]3O)c3c(c2Cl)CC(C)(C)O3)cc1` [Example E220, (2S,3R,4R,5S,6R)-2-(4-Chloro-5-(4-ethoxybenzyl)-2,2-dimethyl-2,3-dihydrobenzofuran-7-yl)-6-(hydroxymethyl)tetrahydro-2H-pyran-3,4,5-triol] showed an IC50 of 1.27 nM. This IC50 and that of the compound before are within 1.5-fold of each other. As for `OC[C@H]1O[C@@H](c2ccc(Cl)c(Cc3ccc(N4CCCC4)cc3)c2)[C@H](O)[C@@H](O)[C@@H]1O` [Example E221], the figure is 2.17 nM.

`CCOc1ccc(Cc2cc([C@@H]3O[C@H](CO)[C@@H](O)[C@H](O)[C@H]3O)c3c(c2Cl)C(C)CO3)cc1` (stereo partly drawn) [Example E222, (2S,3R,4R,5S,6R)-2-(4-Chloro-5-(4-ethoxybenzyl)-3-methyl-2,3-dihydrobenzofuran-7-yl)-6-(hydroxymethyl)-tetrahydro-2H-pyran-3,4,5-triol] returned an IC50 of 1.99 nM. Compound `CCOc1ccc(Cc2cc([C@@H]3O[C@H](CO)[C@@H](O)[C@H](O)[C@H]3O)c3c(c2Cl)C(C)(C)CO3)cc1` [Example E223, (2S,3R,4R,5S,6R)-2-(4-Chloro-5-(4-ethoxybenzyl)-3,3-dimethyl-2,3-dihydrobenzofuran-7-yl)-6-(hydroxymethyl)-tetrahydro-2H-pyran-3,4,5-triol] gave an IC50 of 4.16 nM. In the case of `CCOc1ccc(Cc2cc([C@@H]3O[C@H](CO)[C@@H](O)[C@H](O)[C@H]3O)c3c(c2Cl)OCC3C)cc1` (stereo partly drawn) [Example E224, (2S,3R,4R,5S,6R)-2-(7-Chloro-6-(4-ethoxybenzyl)-3-methyl-2,3-dihydrobenzofuran-4-yl)-6-(hydroxymethyl)-tetrahydro-2H-pyran-3,4,5-triol] it was 0.867 nM.

`CCOc1ccc(Cc2cc([C@@H]3O[C@H](CO)[C@@H](O)[C@H](O)[C@H]3O)c3c(c2Cl)OCC3(C)C)cc1` [Example E225, (2S,3R,4R,5S,6R)-2-(7-Chloro-6-(4-ethoxybenzyl)-3,3-dimethyl-2,3-dihydrobenzofuran-4-yl)-6-(hydroxymethyl)-tetrahydro-2H-pyran-3,4,5-triol] showed an IC50 of 1.82 nM. As for `CCOc1ccc(Cc2cc([C@@H]3O[C@H](CO)[C@@H](O)[C@H](O)[C@H]3O)c3c(c2Cl)OCC3=O)cc1` [Example E226], the figure is 10.5 nM; as for `CCOc1ccc(Cc2cc([C@@H]3O[C@H](CO)[C@@H](O)[C@H](O)[C@H]3O)c3c(c2Cl)OCC3OC)cc1` (stereo partly drawn) [Example E227, (2S,3R,4R,5S,6R)-2-(7-Chloro-6-(4-ethoxybenzyl)-3-methoxy-2,3-dihydrobenzofuran-4-yl)-6-(hydroxymethyl)-tetrahydro-2H-pyran-3,4,5-triol], 8.99 nM; as for `CCCc1c(Cc2ccc(OCC)cc2)cc([C@@H]2O[C@H](CO)[C@@H](O)[C@H](O)[C@H]2O)c2c1OCC2` [Example E229, (2S,3R,4R,5S,6R)-2-(6-(4-Ethoxybenzyl)-7-propyl-2,3-dihydrobenzofuran-4-yl)-6-(hydroxymethyl)-tetrahydro-2H-pyran-3,4,5-triol], 5.6 nM. `OC[C@H]1O[C@@H](c2cc(Cc3ccc4c(c3)NCCC4)c(Cl)c3c2CCO3)[C@H](O)[C@@H](O)[C@@H]1O` [Example E230, (2S,3R,4R,5S,6R)-2-(7-Chloro-6-((1,2,3,4-tetrahydroquinolin-7-yl)methyl)-2,3-dihydrobenzofuran-4-yl)-6-(hydroxymethyl)-tetrahydro-2H-pyran-3,4,5-triol]: the IC50 is 2.49 nM. Turning to `OC[C@H]1O[C@@H](c2cc(Cc3ccc4c(c3)NCCO4)c(Cl)c3c2CCO3)[C@H](O)[C@@H](O)[C@@H]1O` [Example E231, (2S,3R,4R,5S,6R)-2-(7-Chloro-6-((3,4-dihydro-2H-benzo[b][1,4]oxazin-6-yl)methyl)-2,3-dihydrobenzofuran-4-yl)-6-(hydroxymethyl)-tetrahydro-2H-pyran-3,4,5-triol], half-maximal inhibition (IC50) required 5.56 nM. As for `OC[C@H]1O[C@@H](c2cc(Cc3ccc(OC4CCCC4)cc3)c(Cl)c3c2CCO3)[C@H](O)[C@@H](O)[C@@H]1O` [Example E232, (2S,3R,4R,5S,6R)-2-(7-Chloro-6-(4-(cyclopentyloxy)benzyl)-2,3-dihydrobenzofuran-4-yl)-6-(hydroxymethyl)-tetrahydro-2H-pyran-3,4,5-triol], the figure is 1.6 nM; as for `OC[C@H]1O[C@@H](c2cc(Cc3ccc(C4CCCC4)cc3)c(Cl)c3c2CCO3)[C@H](O)[C@@H](O)[C@@H]1O` [Example E233, (2S,3R,4R,5S,6R)-2-(7-Chloro-6-(4-cyclopentylbenzyl)-2,3-dihydrobenzofuran-4-yl)-6-(hydroxymethyl)-tetrahydro-2H-pyran-3,4,5-triol], 1.16 nM. `OC[C@H]1O[C@@H](c2cc(Cc3ccc(OC4CCC4)cc3)c(Cl)c3c2CCO3)[C@H](O)[C@@H](O)[C@@H]1O` [Example E234, (2S,3R,4R,5S,6R)-2-(7-Chloro-6-(4-cyclobutoxybenzyl)-2,3-dihydrobenzofuran-4-yl)-6-(hydroxymethyl)-tetrahydro-2H-pyran-3,4,5-triol] displayed an IC50 of 2.82 nM. This IC50 is about 2.4-fold higher than that of the compound before.

As for `COc1ccc(Cc2cc([C@@H]3O[C@H](CO)[C@@H](O)[C@H](O)[C@H]3O)c3c(c2C(F)F)CCC3)cc1` [Example E237, (2S,3R,4R,5S,6R)-2-(7-(Difluoromethyl)-6-(4-methoxybenzyl)-2,3-dihydro-1H-inden-4-yl)-6-(hydroxymethyl)tetrahydro-2H-pyran-3,4,5-triol], it took 0.734 nM to reach half-maximal inhibition (IC50). The compound `CCc1ccc(Cc2cc([C@@H]3O[C@H](CO)[C@@H](O)[C@H](O)[C@H]3O)c3c(c2Cl)CCC3)cc1` [Example E238, (2S,3R,4R,5S,6R)-2-(7-Chloro-6-(4-ethylbenzyl)-2,3-dihydro-1H-inden-4-yl)-6-(hydroxymethyl)tetrahydro-2H-pyran-3,4,5-triol] displayed an IC50 of 0.627 nM. In the case of `CCc1ccc(Cc2cc([C@@H]3O[C@H](CO)[C@@H](O)[C@H](O)[C@H]3O)c3c(c2C(F)F)CCC3)cc1` [Example E239, (2S,3R,4R,5S,6R)-2-(7-(Difluoromethyl)-6-(4-ethylbenzyl)-2,3-dihydro-1H-inden-4-yl)-6-(hydroxymethyl)tetrahydro-2H-pyran-3,4,5-triol] it was 0.718 nM; in that of `COc1ccc(Cc2cc([C@@H]3O[C@H](CO)[C@@H](O)[C@H](O)[C@H]3O)c3c(c2Cl)SCC3)cc1` [Example E241, (2S,3R,4R,5S,6R)-2-(7-Chloro-6-(4-methoxybenzyl)-2,3-dihydrobenzo[b]thiophen-4-yl)-6-(hydroxymethyl)tetrahydro-2H-pyran-3,4,5-triol], 0.902 nM.

Turning to `COc1ccc(Cc2cc([C@@H]3O[C@H](CO)[C@@H](O)[C@H](O)[C@H]3O)c3c(c2Cl)SCCC3)cc1` [Example E242, (2S,3R,4R,5S,6R)-2-(8-Chloro-7-(4-methoxybenzyl)thiochroman-5-yl)-6-(hydroxymethyl)tetrahydro-2H-pyran-3,4,5-triol], the IC50 was 0.552 nM.
